Results taken from US5932559A, “Treatment of hyperandrogenic conditions” (Merck & Co., Inc., priority 1996, dated 1999).

What was measured:
type 2 5α-reductase [1] = biological target: T1, type 2 5α-reductase (Homo sapiens, UniProt P31213); experiment: Progress curves of DHT formation, time course of inhibition of baculovirus expressed type 2 5α-reductase; type: biochemical; details: 20 nM inhibitor, pH 7.2, 37° C.
T1 construct: made in house
T1 sequence (P31213 1-254): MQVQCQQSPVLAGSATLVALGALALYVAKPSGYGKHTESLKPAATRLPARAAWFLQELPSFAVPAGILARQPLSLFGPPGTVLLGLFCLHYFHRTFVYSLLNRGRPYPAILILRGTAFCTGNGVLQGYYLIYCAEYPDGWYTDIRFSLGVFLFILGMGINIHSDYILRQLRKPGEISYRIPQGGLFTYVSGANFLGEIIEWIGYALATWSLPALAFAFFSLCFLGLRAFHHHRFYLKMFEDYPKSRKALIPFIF
Protocol: Ethanol is included at 1% final concentration as the vehicle for introduction of inhibitors. The rate of production of [^3 H]dihydrotestosterone is approximately constant for up to 2 hours or 10% consumption of substrate. A unit of enzyme activity was defined as 1 pmol product/min, and is equal to 444 fmol enzyme under these conditions.
After quenching the reactions with an equal volume, or more, of water containing 1% trifluoroacetic acid, the [^3 H]dihydrotestosterone is isolated by direct injection onto a reverse phase C-18 column (Vydac 4.6×250 mm, 300 Å, 5 micron), which is run in an isocratic system of 40% water (containing 0.1% trifluoroacetic acid) and 60% methanol at 1 mL/min. […] The effluent containing the [^3 H]dihydrotestosterone peak (6 mL) is collected in a liquid scintillation vial and counted with AQUASOL 2 (14 mL, New England Nuclear) with an efficiency of 0.309. […]
The native human enzyme was from prostate (type 2) or scalp (type 1) tissue, and the recombinant human enzymes were produced by the baculovirus expression system of Anderson, et al. (Chan, H K, Geissler, W M, Anderson, S, Sex Hormones and Antihormones in Endocrine Dependent Pathology: Basic and Clinical Aspects, M. Motta and M. Serio, eds., Elsevier Science 1994). […] Enzyme concentrations were determined by titration with finasteride, or [^3 H]finasteridem, or from catalytic activity using kcat and Km values. […]

[2] = system: human prostate (type 2) isozyme; details: cited from earlier work
[3] = system: human skin (type 1) isozyme; details: cited from earlier work
dihydrotestosterone = details: after withdrawal of finasteride; cited from earlier work
type 2 5α-reductase [4] = biological target: T1, type 2 5α-reductase; experiment: Kinetic constants of baculovirus-expressed type 2 5α-reductase under the standard assay conditions; type: biochemical
Excerpt: Ethanol is included at 1% final concentration as the vehicle for introduction of inhibitors. […] A unit of enzyme activity was defined as 1 pmol product/min, and is equal to 444 fmol enzyme under these conditions.
When tissue extracts are the source of enzyme, the quenched reactions are clarified by centrifugation at 10,000×g before analysis.
The molecular weight was taken to be about 30,000 in estimating enzyme purity.

[5] = system: native human prostate enzyme; details: read-out: Km (Faller et al.), neutral pH; cited from earlier work

CCN(CC)C(=O)[C@H]1CC[C@H]2[C@@H]3CC[C@H]4OC(=O)C=C[C@]4(C)[C@H]3CC[C@]12C [L-682,299, 17β-(N-diethyl)carbamoyl-4-oxa-5α-androst-1-en-3-one]
velocity at infinite-time (type 2 5α-reductase [1]): essentially zero
inhibition of the enzyme at infinite time (type 2 5α-reductase [1]; inhibition developed slowly with time): total inhibition

CC(C)(C)NC(=O)[C@H]1CC[C@H]2[C@@H]3CC[C@H]4NC(=O)C=C[C@]4(C)[C@H]3CC[C@]12C [finasteride, 17β-(N-tert-butylcarbamoyl)-3-oxo-4-aza-5α-androst-1-ene-3-one]
rate constant of binding to the human prostate isozyme ([2]; Faller et al., slow-binding): 270000 M⁻¹ s⁻¹
inhibition type, human prostate (type 2) isozyme ([2]; Harris et al.): slow-binding inhibitors
inhibition of type 2 isozyme, in words ([2]; predominates in the prostate): potently inhibited
inhibition of human skin (type 1) isozyme at clinical doses, in words ([3]; at doses employed in the treatment of BPH): not a significant inhibitor
sensitivity of type 1 isozyme, in words ([3]; sebaceous glands of most regions of skin tissue): relatively insensitive
type 1 rate constant as percent of the rate constant against the prostate isozyme ([3]; type 1 vs type 2): about 1%
time required for dihydrotestosterone to return to basal levels after withdrawal (dihydrotestosterone): as long as two weeks

C[C@]12CC[C@H]3[C@@H](CCC4=CC(=O)CC[C@@]43C)[C@@H]1CC[C@@H]2O [testosterone]
Km (type 2 5α-reductase [4]; baculovirus-expressed type 2, pH 7.2, 37° C., read-out: Km for testosterone): 0.0246 ± 0.0007 µM
turnover number kcat (type 2 5α-reductase [4]; type 2, pH 7.2, 37° C., by titration with finasteride): 0.075 ± 0.006 s⁻¹
Km [5]: 0.02 ± 0.003 µM
